Experiment [1] addresses Beta-2 adrenergic receptor (Cavia porcellus) (UniProt Q8K4Z4). Description: Compound was evaluated for beta adrenoceptor agonistic activity towards Beta-2 adrenergic receptor of isolated guinea pig tracheal strip. The experiment is classed as functional.
For experiment [2], the target named is Beta-1 adrenergic receptor (Cavia porcellus) (UniProt B0FL73). Put plainly: Intrinsic activity was expressed as the ratio between maximal response elicited by compound and that elicited by full agonist ISO towards beta-1 receptor of isolated guinea pig atria. The experiment is classed as functional.
Chain of Beta-1 adrenergic receptor (Cavia porcellus) (B0FL73 1-467): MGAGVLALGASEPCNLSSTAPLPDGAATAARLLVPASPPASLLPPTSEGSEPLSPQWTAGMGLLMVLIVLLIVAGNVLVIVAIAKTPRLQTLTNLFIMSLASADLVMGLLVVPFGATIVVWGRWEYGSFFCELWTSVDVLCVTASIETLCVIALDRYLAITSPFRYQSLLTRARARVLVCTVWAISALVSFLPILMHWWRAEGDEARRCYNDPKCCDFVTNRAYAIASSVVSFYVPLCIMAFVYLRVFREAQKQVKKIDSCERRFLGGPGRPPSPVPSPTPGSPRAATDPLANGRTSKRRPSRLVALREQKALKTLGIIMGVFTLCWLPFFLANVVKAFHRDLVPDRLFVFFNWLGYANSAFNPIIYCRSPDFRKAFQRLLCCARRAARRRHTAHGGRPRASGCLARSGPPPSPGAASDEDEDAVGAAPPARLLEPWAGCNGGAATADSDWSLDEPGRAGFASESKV
For experiment [3], the target named is T1, Adrenergic receptor alpha-2 (Homo sapiens) (UniProt P08913+P18825+P18089). Put plainly: Compound was evaluated for alpha adrenoceptor agonistic activity towards alpha-2 adrenergic receptor of isolated guinea pig ileum. Type of experiment: functional, tissue-based. Particulars: Cavia porcellus, target entry is the homologue from another species.
For experiment [4], the target named is Beta-1 adrenergic receptor (Cavia porcellus) (UniProt B0FL73). Put plainly: Compound was evaluated for beta adrenoceptor agonistic activity towards Beta-1 adrenergic receptor of isolated guinea pig atria. Type of experiment: functional.
The target of experiment [5] is T1, Adrenergic receptor alpha-2 (Homo sapiens). Description: Intrinsic activity was expressed as the ratio between maximal response elicited by compound and that elicited by full agonist NE towards alpha-2 adrenergic receptor of isolated guinea pig ileum. The conditions noted are these: Cavia porcellus. Type of experiment: functional, tissue-based.
Experiment [6] addresses T2, Adrenergic receptor alpha-1 (Rattus norvegicus, UniProt P15823+P23944+P43140).
T2 sequence (P15823 whole entry): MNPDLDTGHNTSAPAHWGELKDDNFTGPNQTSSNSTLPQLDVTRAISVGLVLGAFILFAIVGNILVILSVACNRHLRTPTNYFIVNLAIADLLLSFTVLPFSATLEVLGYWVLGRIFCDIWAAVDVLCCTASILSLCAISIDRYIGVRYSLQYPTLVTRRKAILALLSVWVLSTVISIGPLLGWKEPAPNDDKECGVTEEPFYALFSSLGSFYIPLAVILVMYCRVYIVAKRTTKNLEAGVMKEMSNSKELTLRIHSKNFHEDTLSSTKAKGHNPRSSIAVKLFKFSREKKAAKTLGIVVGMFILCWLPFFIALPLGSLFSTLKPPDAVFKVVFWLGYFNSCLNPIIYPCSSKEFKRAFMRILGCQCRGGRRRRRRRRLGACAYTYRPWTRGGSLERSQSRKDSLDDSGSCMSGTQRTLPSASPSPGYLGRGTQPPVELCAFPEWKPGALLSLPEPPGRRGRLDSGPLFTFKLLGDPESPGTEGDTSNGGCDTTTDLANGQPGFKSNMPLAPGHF
T2 sequence (P23944 whole entry): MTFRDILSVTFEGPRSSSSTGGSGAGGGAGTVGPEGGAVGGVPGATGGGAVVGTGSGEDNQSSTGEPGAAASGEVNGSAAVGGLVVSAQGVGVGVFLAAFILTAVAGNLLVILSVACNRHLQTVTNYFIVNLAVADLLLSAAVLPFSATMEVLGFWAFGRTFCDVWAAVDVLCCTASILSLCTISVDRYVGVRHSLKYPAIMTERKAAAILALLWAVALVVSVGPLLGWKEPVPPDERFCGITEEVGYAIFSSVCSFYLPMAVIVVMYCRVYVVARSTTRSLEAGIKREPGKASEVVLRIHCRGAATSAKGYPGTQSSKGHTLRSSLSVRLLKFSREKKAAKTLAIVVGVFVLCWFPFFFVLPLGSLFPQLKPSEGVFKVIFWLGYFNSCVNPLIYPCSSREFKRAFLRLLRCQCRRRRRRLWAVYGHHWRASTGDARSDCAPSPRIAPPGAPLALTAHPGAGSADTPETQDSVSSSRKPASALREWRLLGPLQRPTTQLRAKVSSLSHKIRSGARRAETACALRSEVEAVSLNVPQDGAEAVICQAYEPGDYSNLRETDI
T2 sequence (P43140 whole entry): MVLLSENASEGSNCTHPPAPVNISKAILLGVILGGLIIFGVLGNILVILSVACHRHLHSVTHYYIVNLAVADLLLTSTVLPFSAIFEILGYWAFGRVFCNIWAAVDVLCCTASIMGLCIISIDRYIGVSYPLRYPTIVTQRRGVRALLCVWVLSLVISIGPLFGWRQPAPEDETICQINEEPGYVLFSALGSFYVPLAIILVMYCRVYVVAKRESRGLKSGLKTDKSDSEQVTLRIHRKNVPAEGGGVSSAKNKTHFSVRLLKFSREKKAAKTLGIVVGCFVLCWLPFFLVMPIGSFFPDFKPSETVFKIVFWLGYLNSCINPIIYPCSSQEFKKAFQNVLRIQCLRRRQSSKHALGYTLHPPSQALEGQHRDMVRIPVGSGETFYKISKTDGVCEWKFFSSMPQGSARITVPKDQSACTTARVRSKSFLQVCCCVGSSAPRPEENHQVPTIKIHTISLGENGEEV
Description: Binding affinity towards Alpha-1 adrenergic receptor of rat brain.

Experiment [7] has as its target T3, Adrenergic receptor alpha-2 (Rattus norvegicus, UniProt P22086+P19328+P22909).
T3 sequence (P22086 whole entry): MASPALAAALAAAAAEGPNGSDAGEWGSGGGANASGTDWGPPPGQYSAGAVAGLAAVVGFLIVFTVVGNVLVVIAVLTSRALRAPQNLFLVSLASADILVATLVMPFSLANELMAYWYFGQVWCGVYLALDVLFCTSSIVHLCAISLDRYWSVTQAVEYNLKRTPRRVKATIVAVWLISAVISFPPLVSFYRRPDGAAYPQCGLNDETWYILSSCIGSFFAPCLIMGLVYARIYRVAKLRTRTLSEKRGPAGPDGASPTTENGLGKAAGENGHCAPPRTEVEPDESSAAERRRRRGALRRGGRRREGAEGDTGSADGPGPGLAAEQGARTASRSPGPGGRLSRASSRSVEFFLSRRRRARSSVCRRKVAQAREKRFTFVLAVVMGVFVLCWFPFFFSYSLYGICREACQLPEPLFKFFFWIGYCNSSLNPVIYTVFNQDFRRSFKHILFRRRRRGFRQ
T3 sequence (P19328 whole entry): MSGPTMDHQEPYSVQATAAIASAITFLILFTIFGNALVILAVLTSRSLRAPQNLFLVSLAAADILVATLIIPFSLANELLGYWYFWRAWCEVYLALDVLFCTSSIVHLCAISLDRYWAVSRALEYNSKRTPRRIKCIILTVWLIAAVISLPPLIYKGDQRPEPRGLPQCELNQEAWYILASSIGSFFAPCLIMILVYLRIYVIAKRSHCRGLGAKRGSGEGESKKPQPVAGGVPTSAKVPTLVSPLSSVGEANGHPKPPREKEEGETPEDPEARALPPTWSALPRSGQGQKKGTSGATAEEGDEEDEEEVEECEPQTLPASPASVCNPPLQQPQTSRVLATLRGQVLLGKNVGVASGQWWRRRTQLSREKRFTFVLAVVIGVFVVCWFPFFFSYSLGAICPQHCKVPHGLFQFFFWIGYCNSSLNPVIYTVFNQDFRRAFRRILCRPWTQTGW
T3 sequence (P22909 whole entry): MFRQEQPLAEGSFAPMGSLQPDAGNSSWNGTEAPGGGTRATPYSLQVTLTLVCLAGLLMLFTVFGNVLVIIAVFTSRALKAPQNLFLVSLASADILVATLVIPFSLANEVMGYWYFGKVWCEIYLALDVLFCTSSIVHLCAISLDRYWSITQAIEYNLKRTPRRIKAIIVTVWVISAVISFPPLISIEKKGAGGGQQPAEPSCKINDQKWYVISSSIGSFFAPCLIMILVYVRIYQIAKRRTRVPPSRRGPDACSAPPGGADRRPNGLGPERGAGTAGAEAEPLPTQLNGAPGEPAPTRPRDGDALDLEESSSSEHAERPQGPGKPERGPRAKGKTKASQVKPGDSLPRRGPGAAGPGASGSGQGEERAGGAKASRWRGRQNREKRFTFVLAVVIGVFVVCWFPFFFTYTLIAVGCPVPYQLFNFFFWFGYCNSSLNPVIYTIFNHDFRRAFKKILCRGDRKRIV
Put plainly: Binding affinity towards Alpha-2 adrenergic receptor of rat brain.

The target in experiment [8] is T4, Adrenergic receptor alpha-1 (Rattus norvegicus) (UniProt P15823+P23944+P43140). Description: Intrinsic activity was expressed as the ratio between maximal response elicited by compound and that elicited by full agonist NE towards Alpha-1 adrenergic receptor of isolated rat vas deferens. Type of experiment: functional, tissue-based.
Experiment [9] deals with T5, Beta-2 adrenergic receptor (Bos taurus, UniProt Q28044). Put plainly: Compound was evaluated for beta adrenergic binding affinity towards Beta-2 adrenergic receptor of bovine lung.
T5 sequence (Q28044 whole entry): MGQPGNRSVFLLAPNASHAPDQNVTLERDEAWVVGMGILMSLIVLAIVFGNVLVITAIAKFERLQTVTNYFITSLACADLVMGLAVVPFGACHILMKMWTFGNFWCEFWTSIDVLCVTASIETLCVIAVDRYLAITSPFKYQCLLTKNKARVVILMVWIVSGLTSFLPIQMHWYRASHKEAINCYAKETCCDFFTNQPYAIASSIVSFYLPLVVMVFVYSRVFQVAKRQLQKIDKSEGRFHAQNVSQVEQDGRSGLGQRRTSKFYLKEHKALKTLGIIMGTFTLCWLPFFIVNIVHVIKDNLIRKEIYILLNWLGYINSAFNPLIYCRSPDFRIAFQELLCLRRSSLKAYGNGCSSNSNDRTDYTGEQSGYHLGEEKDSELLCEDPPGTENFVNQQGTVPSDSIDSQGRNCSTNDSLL
Experiment [10] addresses Beta-1 adrenergic receptor (Rattus norvegicus, UniProt P18090).
Description: Compound was evaluated for beta adrenergic binding affinity towards Beta-1 adrenergic receptor of rat brain
In experiment [11] the target is T4, Adrenergic receptor alpha-1 (Rattus norvegicus). Description: (§1) Compound was evaluated for alpha adrenoceptor agonistic activity towards Alpha-1 adrenergic receptor of isolated rat vas deferens. Type of experiment: functional, tissue-based.
Experiment [12] addresses Beta-1 adrenergic receptor (Cavia porcellus) (UniProt B0FL73). Description: Intrinsic activity was expressed as the ratio between maximal response elicited by compound and that elicited by full agonist ISO towards beta 1 receptor of isolated guinea pig atria. Type of experiment: functional.
The target is the same in experiment [13]. Put plainly: Compound was evaluated for beta adrenoceptor agonistic activity towards beta 1 receptor of isolated guinea pig atria (exp 1). The experiment is classed as functional.
The target of experiment [14] is T4, Adrenergic receptor alpha-1 (Rattus norvegicus). Description: Compound was evaluated for alpha adrenoceptor agonistic activity towards Alpha-1 adrenergic receptor of isolated rabbit aortic strips (exp 2). The experiment is classed as functional.
The target in experiment [15] is Beta-1 adrenergic receptor (Cavia porcellus) (UniProt B0FL73). Description: Compound was evaluated for beta adrenoceptor agonistic activity towards Beta-1 adrenergic receptor of isolated guinea pig atria (exp 1). The experiment is classed as functional.
The target in experiment [16] is T4, Adrenergic receptor alpha-1 (Rattus norvegicus). Put plainly: Compound was evaluated for alpha adrenoceptor agonistic activity towards alpha 1 receptor of isolated rat vas deferens. Type of experiment: functional, tissue-based.
For experiment [17], the target named is T1, Adrenergic receptor alpha-2 (Homo sapiens). Particulars: Cavia porcellus; Ileum.
Description: Intrinsic activity was expressed as the ratio between maximal response elicited by compound and that elicited by full agonist NE towards Alpha-2 adrenergic receptor of isolated guinea pig ileum
Experiment [18] concerns the target Beta-2 adrenergic receptor (Cavia porcellus) (UniProt Q8K4Z4). Put plainly: Compound was evaluated for beta adrenoceptor agonistic activity towards beta 2 receptor of isolated guinea pig tracheal strip (exp 1 2). Type of experiment: functional.
The target in experiment [19] is T5, Beta-2 adrenergic receptor. Put plainly: Compound was evaluated for beta adrenergic binding affinity towards beta-2 receptor of bovine lung.
Experiment [20] deals with T3, Adrenergic receptor alpha-2. Put plainly: Compound was evaluated for alpha adrenergic binding affinity towards Alpha-2 adrenergic receptor of rat brain.
The target of experiment [21] is Beta-2 adrenergic receptor (Cavia porcellus) (UniProt Q8K4Z4). Description: Compound was evaluated for beta adrenoceptor agonistic activity towards Beta-2 adrenergic receptor of isolated guinea pig tracheal strip (exp 1 2). The experiment is classed as functional.
Chain of Beta-2 adrenergic receptor (Cavia porcellus) (Q8K4Z4 whole entry, looked up): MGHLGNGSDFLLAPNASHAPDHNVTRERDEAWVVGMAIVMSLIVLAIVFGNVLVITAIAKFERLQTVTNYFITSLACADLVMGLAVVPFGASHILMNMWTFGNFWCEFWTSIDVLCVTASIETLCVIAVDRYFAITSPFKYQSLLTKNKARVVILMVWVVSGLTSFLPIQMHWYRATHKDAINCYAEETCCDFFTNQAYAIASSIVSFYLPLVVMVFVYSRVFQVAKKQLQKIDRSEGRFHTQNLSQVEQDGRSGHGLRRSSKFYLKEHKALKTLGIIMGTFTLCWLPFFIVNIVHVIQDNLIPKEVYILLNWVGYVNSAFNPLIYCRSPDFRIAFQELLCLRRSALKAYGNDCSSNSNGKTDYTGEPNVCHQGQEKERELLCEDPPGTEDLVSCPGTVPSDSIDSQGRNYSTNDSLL
In experiment [22] the target is Beta-1 adrenergic receptor (Cavia porcellus) (UniProt B0FL73). Put plainly: Compound was evaluated for beta adrenoceptor agonistic activity towards Beta-1 adrenergic receptor of isolated guinea pig atria (exp 2). The experiment is classed as functional.
Experiment [23] addresses Adrenergic receptor alpha-1 (Homo sapiens) (UniProt P35348+P25100+P35368). The experiment is described as §1. Type of experiment: functional, tissue-based. Particulars: Oryctolagus cuniculus.

This is an account of results in ChEMBL document CHEMBL1125402, “Conformational effects on the activity of drugs. 13. A revision of previously proposed models for the activation of alpha- and beta-adrenergic receptors” (J Med Chem, 1992).

Chain of Beta-1 adrenergic receptor (P18090 whole entry): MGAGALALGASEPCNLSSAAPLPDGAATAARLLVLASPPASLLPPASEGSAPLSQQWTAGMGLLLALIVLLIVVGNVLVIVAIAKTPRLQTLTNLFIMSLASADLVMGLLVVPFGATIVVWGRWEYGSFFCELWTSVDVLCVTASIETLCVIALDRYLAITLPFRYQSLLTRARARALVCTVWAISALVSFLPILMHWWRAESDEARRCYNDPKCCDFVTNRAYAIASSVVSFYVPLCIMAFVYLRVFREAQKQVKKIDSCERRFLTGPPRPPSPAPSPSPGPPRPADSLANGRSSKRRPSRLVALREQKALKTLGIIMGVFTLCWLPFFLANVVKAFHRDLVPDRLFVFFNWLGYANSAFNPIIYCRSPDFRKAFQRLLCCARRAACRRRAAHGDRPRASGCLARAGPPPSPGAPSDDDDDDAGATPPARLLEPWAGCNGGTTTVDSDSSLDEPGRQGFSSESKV

For the molecule `N[C@@H]1CCc2cc(O)c(O)cc2[C@H]1O`, the pD2 was found to be 5.36 in [1], 6.63 in experiment [3], 4.57 in [4] and 4.6 in experiment [11]. For the same molecule, the Intrinsic activity in [2] came to 0.81; in experiment [5] it was 1.42; in experiment [8], 0.5. Further, the Ki in experiment [6] is 0.3 µM; in [7], 0.09 µM; in [9], 71 µM; in [10], greater than 100 µM.
On to `CC(C)N1CCCC(O)(c2ccc(O)c(O)c2)C1` (stereo not drawn), for which the Intrinsic activity in [12] amounted to 0.16; in experiment [5] it was 0.89. Besides, the pD2 came to 4.64 in [1], 4.57 in [3] and 3.5 in experiment [4]. Besides, the Ki in experiment [6] turned out to be 36 µM; in experiment [7] it was 4.8 µM; in [9], 92 µM; in [10], 60 µM.
Regarding `N[C@@H]1CCc2c(ccc(O)c2O)[C@H]1O`, the pD2 is 4.96 in [13]; 6.74 in [15]; 3.7 in [16]; 5.32 in experiment [17]; 7.49 in experiment [18]; 7.78 in experiment [21]. The molecule further gave a pD2 in experiment [23] of less than 3.5. The results for the Intrinsic activity in [14] and in experiment [22] were 0.87 and 1, respectively. For the same molecule, the Ki in [6] was greater than 100 µM; in [19], 0.12 µM; in experiment [20] it was 2.9 µM; in [10], 8 µM.
